The test system of test [1] is mechanical hyperalgesia in CCI rats. Nature of the test: rat chronic constriction nerve injury (CCI) model of neuropathic pain, paw pressure test. Format: in vivo. The note with it: intraperitoneal, 3.6-3600 μg/kg, 15-120 minutes after injection, FIGS. 3 and 4. The procedure:
A rat model of neuropathic pain (the chronic constriction nerve injury model; CCI) was used. Unilateral peripheral mononeuropathy was produced on the left hind limb according to the method described by Bennett and Xie (1988). Under pentobarbital anesthesia (40 mg/kg, IP) ligation of the siatic nerve and sham surgery were performed in each rat on the left and right hind paws, respectively. Proximal to the sciatice trifurcation, the nerve (about 7 mm) was freed from adhering tissue and four loose ligatures were tied around the nerve (1 mm apart) using 4.0 chromic catgut, barely constricting the diameter of the nerve. In sham surgery, the right sciatic nerve was exposed using the same procedure, but the nerve was not ligated. The incision was closed in layers with silk thread 3.0. […] No severe motor impairment was observed.
The presence of a decreased threshold to mechanical noxious stimuli (mechanical hyperalgesia) was evaluated by the Randal and Selitto (1957) method (paw pressure test) in CCI rats. The hind paw was placed between a flat surface and a blunt pointer in the Basile Analgesimeter (UGO Basile, Italy) and increasing pressure (32 g/s) was applied to the dorsal side of the paw. Vocalization was used as the end point (vocalization threshold, VT, g). […] Responses were assessed prior to (baseline, taken twice) and at 15, 30, 45, 60 and 120 minutes after injection. […]

In test [2] the test system is formalin-induced flinching. Description: rat model of tonic inflammatory pain (the formalin test). The settings on record: intraperitoneal, 3.6-3600 μg/kg, 15 minutes prior to formalin, phase 1 and 2, FIGS. 1 and 2. It counts as in vivo. The procedure:
A rat model of tonic inflammatory pain (the formalin test) was used in this study (Wheeler-Aceto and Cowan, 1991). Fifty μl of formalin (5%) was injected subcutaneously (SC) into the dorsal surface of the left hind paw. This procedure typically produces a biphasic behavioral response consisting of flinching, lifting and licking. The first phase (0-10 minutes) results from direct stimulation of nociceptors (nociceptive pain) whereas the second phase (20-60 minutes) is thought to involve central sensitization. Rats (3/dose) were pretreated 15 minutes prior to formalin (SC) injection with ZZ-204G (3.6-3600 μg/kg) administered by the IP route. ZZ-204G is as below:
Saline served as control. Incidences of formalin-induced flinching were counted continuously in 5 minute intervals for 60 minutes. Each rat received only one treatment.

Turning to `C(#Cc1cc(C#CCCC[n+]2cccc(-c3ccccc3)c2)c(C#CCCC[n+]2cccc(-c3ccccc3)c2)cc1C#CCCC[n+]1cccc(-c2ccccc2)c1)CCC[n+]1cccc(-c2ccccc2)c1.[Br-].[Br-].[Br-].[Br-]` [ZZ-204G], in test [1], the “antihyperalgesic effect in the rodent chronic constriction nerve injury model (vocalization threshold, paw pressure test)” value was “antihyperalgesic effect”. The “analgesic effect in the rodent formalin tonic inflammatory pain model (formalin-induced flinching)” value in test [2] was “analgesic effect”.

These data come from US20100173937A1, “USE OF TETRAKIS-QUATERNARY AMMONIUM SALTS AS PAIN MODULATING AGENTS” (University of Kentucky Research Foundation, priority 2008, published 2010).
